According to patent US20230147257A1 (DONG-A ST CO., LTD., priority 2020, published 2023):
Counter-ions that a name gives are not always drawn.

target: T1, AhR (Homo sapiens, UniProt P35869); assay: In vitro assay 1: XRE-luciferase reporter assay, antagonism in human cell line (HepG2); format: cell-based; conditions: not given
T1 construct: host or cells: HepG2
T1 sequence (P35869 11-848): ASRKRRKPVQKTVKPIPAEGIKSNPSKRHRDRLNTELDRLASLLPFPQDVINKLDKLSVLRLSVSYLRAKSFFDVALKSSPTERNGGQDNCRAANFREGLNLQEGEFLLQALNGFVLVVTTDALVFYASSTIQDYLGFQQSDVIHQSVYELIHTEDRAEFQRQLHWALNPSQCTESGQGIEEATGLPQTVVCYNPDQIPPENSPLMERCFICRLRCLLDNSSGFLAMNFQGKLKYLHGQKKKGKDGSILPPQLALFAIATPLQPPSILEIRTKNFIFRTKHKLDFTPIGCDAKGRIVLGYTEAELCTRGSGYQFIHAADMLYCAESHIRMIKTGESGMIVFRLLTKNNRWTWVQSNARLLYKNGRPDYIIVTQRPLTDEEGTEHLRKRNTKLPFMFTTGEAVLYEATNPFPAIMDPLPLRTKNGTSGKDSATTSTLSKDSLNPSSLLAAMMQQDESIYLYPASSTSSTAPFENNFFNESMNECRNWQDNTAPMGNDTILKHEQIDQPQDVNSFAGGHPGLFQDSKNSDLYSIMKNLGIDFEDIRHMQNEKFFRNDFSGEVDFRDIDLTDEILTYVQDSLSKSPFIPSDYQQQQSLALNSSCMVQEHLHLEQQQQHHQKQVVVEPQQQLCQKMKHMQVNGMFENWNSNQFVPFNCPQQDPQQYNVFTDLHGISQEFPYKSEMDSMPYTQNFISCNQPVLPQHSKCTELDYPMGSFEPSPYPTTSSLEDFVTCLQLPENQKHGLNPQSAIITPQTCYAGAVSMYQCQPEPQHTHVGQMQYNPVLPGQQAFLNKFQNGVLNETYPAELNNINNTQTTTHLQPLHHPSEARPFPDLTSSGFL
From the text: In Vitro XRE-Luciferase Reporter Assay (In Vitro Assay 1, 2, 3)
AhR activation leads the induction of target gene expression such as CYP1A1 and CYP1B1 by AhR binding to AhR-responsive DNA elements also known as xenobiotics responsive elements (XRE). The assay for measuring AhR activity herein is the luciferase assay using cell lines transfected with luciferase reporter plasmid containing XREs at the upstream of the reporter gene. Cells transfected with XRE-luciferase reporter (XRE-Luc) plasmid drive luciferase activity reflecting activation and inhibition of AhR in the cells. In addition to transfection with XRE-reporter vector, cells were co-transfected with Nano-luciferase reporter gene construct (Nano-Luc) containing constitutively active promoter as internal control. Kynurenine (an endogenous AhR agonist) was used to stimulate cells to test antagonistic properties of the compounds. The half-maximal inhibitory concentration (IC50) or half-maximal effective concentration (EC50) value was calculated using nonlinear regression (four parameters) with Prism8.0 software (GraphPad).
In Vitro Assay 1: Antagonism in Human Cell Line
HepG2 (human hepatoma cell line) cell line with a XRE-luciferase reporter either transiently or stably (Invivogen) were plated in complete medium and incubated at 37° C. in a CO2 incubator. After 24 hours, cells were treated with kynurenine (50* or 200 μM) alone (negative control) or with test compounds for 6 hours. Luciferase activity was measured with a commercial kit such as the Promega Luciferase kit or other reagents for measuring luciferase activity. Relative luciferase activity (Firefly/Nano-Luc) was used to calculate IC50 values. The relative luciferase activity was further normalized with kynurenine alone group as the maximum control and the vehicle group as the minimum control. (IC50 values are grouped as A, B, C and D, whereby A: IC50<0.01 μM; B: 0.01<IC50<0.1 μM; C: 0.1<IC50<1.0 μM; D: IC50>1.0 μM)

SMILES | IC50
CCOP(=O)(OCC)OCC(C)n1cnc2c(-c3cccnc3)nc(-c3ccc(Cl)cc3)cc2c1=O (centres unmarked) [Example 47, 2-(6-(4-chlorophenyl)-4-oxo-8-(pyridin-3-yl)pyrido[3,4-d]pyrimidin-3(4H)-yl)propyl diethyl phosphate] | 10 to 100 nM

same assay, conditions: HepG2 XRE-luciferase, cells treated with kynurenine 50 μM (*), 6 hours; read-out: Assay 1: AhR-Luc Human Antagonism (IC50)

IC50 | SMILES
> 1000 nM | CCC(CO)n1cnc2c(-c3cccnc3)nc(-c3ccc(C(F)(F)F)cc3)cc2c1=O (centres unmarked) [Example 53, 3-(1-hydroxybutan-2-yl)-8-(pyridin-3-yl)-6-(4-(trifluoromethyl)phenyl)pyrido[3,4-d]pyrimidin-4(3H)-one]
> 1000 nM | CCC(CO)n1cnc2c(-c3cnn(C)c3)nc(-c3ccc(C(F)(F)F)cc3)cc2c1=O (centres unmarked) [Example 54, 3-(1-hydroxybutan-2-yl)-8-(1-methyl-1H-pyrazol-4-yl)-6-(4-(trifluoromethyl)phenyl)pyrido[3,4-d]pyrimidin-4(3H)-one]

same assay, conditions: HepG2 XRE-luciferase, cells treated with kynurenine 200 μM (no *), 6 hours; read-out: Assay 1: AhR-Luc Human Antagonism (IC50)

SMILES | IC50
CC(=O)OC(C)(C)Cn1cnc2c(-c3cccnc3)nc(-c3ccc(Cl)cc3)cc2c1=O [Example 36, 1-(6-(4-chlorophenyl)-4-oxo-8-(pyridin-3-yl)pyrido[3,4-d]pyrimidin-3(4H)-yl)-2-methylpropan-2-yl acetate] | 10 to 100 nM
CC(C)(O)Cn1cnc2c(-c3cccnc3)nc(-c3ccc(C(F)(F)F)cc3)cc2c1=O [Example 39, 3-(2-hydroxy-2-methylpropyl)-8-(pyridin-3-yl)-6-(4-(trifluoromethyl)phenyl)pyrido[3,4-d]pyrimidin-4(3H)-one] | > 1000 nM
CC(C)C(CO)n1cnc2c(-c3cccnc3)nc(-c3ccc(Cl)cc3)cc2c1=O (centres unmarked) [Example 41, 6-(4-chlorophenyl)-3-(1-hydroxy-3-methylbutan-2-yl)-8-(pyridin-3-yl)pyrido[3,4-d]pyrimidin-4(3H)-one] | > 1000 nM
CC(C)C(CO)n1cnc2c(-c3cccnc3)nc(-c3ccc(C(F)(F)F)cc3)cc2c1=O (centres unmarked) [Example 42, 3-(1-hydroxy-3-methylbutan-2-yl)-8-(pyridin-3-yl)-6-(4-(trifluoromethyl)phenyl)pyrido[3,4-d]pyrimidin-4(3H)-one] | > 1000 nM
CC(C)C(CO)n1cnc2c(-c3cccnc3)nc(-c3ccc(C(F)(F)F)nc3)cc2c1=O (centres unmarked) [Example 43, 3-(1-hydroxy-3-methylbutan-2-yl)-8-(pyridin-3-yl)-6-(6-(trifluoromethyl)pyridin-3-yl)pyrido[3,4-d]pyrimidin-4(3H)-one] | > 1000 nM
CC(CO)N1CNc2c(cc(-c3ccc(Cl)cc3)nc2-c2cccnc2)C1=O (centres unmarked) [Example 60] | 10 to 100 nM
Cn1cc(-c2nc(-c3ccc(Cl)cc3)cc3c(=O)n(C4CCCC(O)C4)cnc23)cn1 (centres unmarked) [Example 64, 6-(4-chlorophenyl)-3-(3-hydroxycyclohexyl)-8-(1-methyl-1H-pyrazol-4-yl)pyrido[3,4-d]pyrimidin-4(3H)-one] | 10 to 100 nM
CN1CCN(c2ccc(-c3cc4c(=O)n(CC(O)CO)cnc4c(-c4cccnc4)n3)cc2)CC1 (centres unmarked) [Example 68, 3-(2,3-dihydroxypropyl)-6-(4-(4-methylpiperazin-1-yl)phenyl)-8-(pyridin-3-yl)pyrido[3,4-d]pyrimidin-4(3H)-one] | > 1000 nM
O=c1c2cc(-c3cnc(C(F)(F)F)nc3)nc(-c3cccnc3)c2ncn1[C@@H]1CC[C@H](O)C1 [Example 72, 3-((1R,3S)-3-hydroxycyclopentyl)-8-(pyridin-3-yl)-6-(2-(trifluoromethyl)pyrimidin-5-yl)pyrido[3,4-d]pyrimidin-4(3H)-one, TFA salt] | 10 to 100 nM
CC(CO)n1cnc2c(-c3cccnc3)nc(-c3ccc(-c4ccc(Cl)cc4)cc3)cc2c1=O (centres unmarked) [Example 74, 6-(4′-chloro-[1,1′-biphenyl]-4-yl)-3-(1-hydroxypropan-2-yl)-8-(pyridin-3-yl)pyrido[3,4-d]pyrimidin-4(3H)-one] | < 10 nM
O=c1c2cc(-c3ccc(N4CCOCC4)cc3)nc(-c3cccnc3)c2ncn1C1CCS(=O)(=O)CC1 [Example 78, 3-(1,1-dioxidotetrahydro-2H-thiopyran-4-yl)-6-(4-morpholinophenyl)-8-(pyridin-3-yl)pyrido[3,4-d]pyrimidin-4(3H)-one] | < 10 nM

More lines, now with the values ahead:

IC50 | SMILES
< 10 nM | Cn1cc(-c2nc(-c3ccc(Cl)cc3)cc3c(=O)n([C@H]4CC[C@@H](O)C4)cnc23)cn1 [Example 34, 6-(4-chlorophenyl)-3-((1S,3R)-3-hydroxycyclopentyl)-8-(1-methyl-1H-pyrazol-4-yl)pyrido[3,4-d]pyrimidin-4(3H)-one]
< 10 nM | Cn1cc(-c2nc(-c3ccc(C(F)(F)F)cc3)cc3c(=O)n([C@H]4CC[C@@H](O)C4)cnc23)cn1 [Example 35, 3-((1S,3R)-3-hydroxycyclopentyl)-8-(1-methyl-1H-pyrazol-4-yl)-6-(4-(trifluoromethyl)phenyl)pyrido[3,4-d]pyrimidin-4(3H)-one]
< 10 nM | CC(=O)OC(C)(C)Cn1cnc2c(-c3cccnc3)nc(-c3ccc(C(F)(F)F)cc3)cc2c1=O [Example 37, 2-methyl-1-(4-oxo-8-(pyridin-3-yl)-6-(4-(trifluoromethyl)phenyl)pyrido[3,4-d]pyrimidin-3(4H)-yl)propan-2-yl acetate]
< 10 nM | CC(C)(O)Cn1cnc2c(-c3cccnc3)nc(-c3ccc(C(F)(F)F)nc3)cc2c1=O [Example 40, 3-(2-hydroxy-2-methylpropyl)-8-(pyridin-3-yl)-6-(6-(trifluoromethyl)pyridin-3-yl)pyrido[3,4-d]pyrimidin-4(3H)-one]
< 10 nM | O=c1c2cc(-c3ccc(Cl)cc3)nc(-c3cccnc3)c2ncn1C1CCC(O)CC1 (centres unmarked) [Example 58, 6-(4-chlorophenyl)-3-((1s,4s)-4-hydroxycyclohexyl)-8-(pyridin-3-yl)pyrido[3,4-d]pyrimidin-4(3H)-one]
< 10 nM | O=c1c2cc(-c3ccc(Cl)cc3)nc(-c3cccnc3)c2ncn1-c1cccc(O)c1 [Example 61, 6-(4-chlorophenyl)-3-(3-hydroxyphenyl)-8-(pyridin-3-yl)pyrido[3,4-d]pyrimidin-4(3H)-one]
< 10 nM | O=c1c2cc(-c3ccc(C(F)(F)F)cc3)nc(-c3cccnc3)c2ncn1-c1cccc(O)c1 [Example 62, 3-(3-hydroxyphenyl)-8-(pyridin-3-yl)-6-(4-(trifluoromethyl)phenyl)pyrido[3,4-d]pyrimidin-4(3H)-one]
< 10 nM | O=c1c2cc(-c3ccc(Cl)cc3)nc(-c3cccnc3)c2ncn1C1CCCC(O)C1 (centres unmarked) [Example 63, 6-(4-chlorophenyl)-3-(3-hydroxycyclohexyl)-8-(pyridin-3-yl)pyrido[3,4-d]pyrimidin-4(3H)-one]
< 10 nM | O=c1c2cc(-c3ccc(C(F)(F)F)nc3)nc(-c3cccnc3)c2ncn1[C@@H]1CC[C@H](O)C1 [Example 65, 3-((1R,3S)-3-hydroxycyclopentyl)-8-(pyridin-3-yl)-6-(6-(trifluoromethyl)pyridin-3-yl)pyrido[3,4-d]pyrimidin-4(3H)-one]
< 10 nM | O=c1c2cc(-c3ccc(C(F)(F)F)cc3)nc(-c3cccnc3)c2ncn1C(CO)CO [Example 69, 3-(1,3-dihydroxypropan-2-yl)-8-(pyridin-3-yl)-6-(4-(trifluoromethyl)phenyl)pyrido[3,4-d]pyrimidin-4(3H)-one]
< 10 nM | O=c1c2cc(-c3ccc(Cl)cc3)nc(-c3cccnc3)c2ncn1C(CO)CO [Example 70, 6-(4-chlorophenyl)-3-(1,3-dihydroxypropan-2-yl)-8-(pyridin-3-yl)pyrido[3,4-d]pyrimidin-4(3H)-one]
< 10 nM | O=c1c2cc(-c3ccc(N4CCOCC4)cc3)nc(-c3cccnc3)c2ncn1[C@@H]1CC[C@H](O)C1 [Example 73, 3-((1R,3S)-3-hydroxycyclopentyl)-6-(4-morpholinophenyl)-8-(pyridin-3-yl)pyrido[3,4-d]pyrimidin-4(3H)-one]
